Experimental data taken from patent US11534412B2, “Application of totarol and pharmaceutical composition containing totarol” (Emergopharm SP. Z O.O. SP.K., priority 2017, dated 2022).

Test system: Gardnerella vaginalis - clinical strain
Assay: Determination of the MIC value of totarol, broth dilution in 96-well plates with OD and quantitative culture
Format: cell-based
Conditions: for OD, average of 3 measurements: 620 nm
Description: Test of antibacterial activity of totarol using DMI (dimethylisosorbide) as a solvent.
A suspension of 0.5 McF in physiological saline (suspension density 10^8 cfu/ml) was prepared from a 24-hour culture of a standard strain. 1 ml of the suspension was collected to 9 ml of a TSB broth ([…]). Suspensions with a dilution of 10^−6 were prepared in the described way. A suspension with a cell density of 10^5 cfu/ml was selected for further investigations. For each strain, 2 96-well plates were prepared: the first one was intended for the OD measurement, the second one—for quantitative culture on solid media. • A/ to wells B1-D1, B2-D2 and B-D 4-11, 100 µl of the broth were added; • B/ to wells B3-D3, 200 µl of the broth were added; • C/ to wells B1-D1, 1 µl of stock I was added; • D/ to wells B2-D2, 1 µl of stock II was added; • E/ to wells B3-D3, 2 µl of stock III were added. Using a multichannel pipette, 100 µl of the sample were collected from each of the B3-D3 wells and placed in wells B4-D4 (mixing by sucking the content in and letting it out for 5 times). The pipette tips were replaced and 100 µl of the content were collected from of the B4-D4 wells, and placed in wells B5-D5, mixing as previously. These operations were repeated through the wells B11-D11. The content in the B11-D11 wells was mixed, and 100 µl of the fluid were collected and discarded. This way, a series of dilutions of totarol samples in DMI in the range of 0.32% to 0.0004% was obtained. Then, 100 µl of a corresponding bacterial culture were added to the wells B, C, D 1-11. In consequence, a change in the final concentration range occurred, to 0.16%-0.0002%. Control Preparation: • Negative control: 100 µl of the broth+1 pl DMI were added to the Al well. • Positive control (I): 100 µl of the broth with the bacterial culture were added to the wells E1-G1. • Diluent positive control (II): 100 µl of the broth with the bacterial culture+1 pl DMI were added to the wells E2-G2. The OD value in the individual wells was read at the wavelength of 620 nm (read time 0). From the second 96-well plate, a culture was inoculated by a quantitative method from every dilution onto a well with a proper solid medium, and incubated for 24 h at 37° C. under aerobic or anaerobic conditions, depending on the strain. The plates were incubated under aerobic conditions or in an atmosphere of an elevated CO2 concentration (for the strains requiring it) in an incubator at 37° C. The OD was read after 8 h, 16 h, and 24 h, respectively. Before every OD measurement, the contents of the wells were mixed delicately. In parallel to the OD readout, cultures we inoculated from the second 96-well plate, from every dilution, into plates with a proper solid medium, and incubated for 24 h at 37° C., under aerobic or anaerobic conditions. For the analysis of the experimental results, an average value of the OD measurement obtained from three repetitions in the individual times (0, 8, 16, and 24 h) for the individual microbes (Gardnerella vaginalis, Streptococcus agalactiae, Enterococcus faecalis, Lactobacillus gasseri/plantarum) was taken. Additionally, the number of bacteria grown on solid media was taken into account. The results of the tests confirm the specific, concentration-dependent selectiveness, and the high antibacterial effectiveness of totarol against the pathogenic microorganisms: Gardnerella vaginalis, Streptococcus agalactiae, Enterococcus faecalis at low MIC values safe for bacteria of the Lactobacillus genus.

With CC(C)c1c(O)ccc2c1CC[C@H]1C(C)(C)CCC[C@]21C [Totarol, totarol] as the compound, how does the MIC value (G. vaginalis) read?
The MIC value was 0.005%.

What about the “difference in values of MIC concentrations” value (bacilli of the Lactobacillus genus versus Gardnerella vaginalis) of the same compound?
The value was “approximately 10 fold”.

And the “viable count by quantitative culture (cfu/ml)” value (“viable count” for short) (totarol 0.0002%, 0 h)?
Its value is 1.5 × 10^5 cfu/ml.

And the “OD, average of 3 measurements” value (totarol 0.0002%, 0 h)?
Its value is 0.313.

What about the “viable count” value (totarol 0.0002%, 8 h) of the same compound?
Its value is 2 × 10^5 cfu/ml.

And the “OD, average of 3 measurements” value (totarol 0.0002%, 8 h)?
The value was 0.328.

What about the “viable count” value (totarol 0.0002%, 16 h) of the same compound?
The value was 2 × 10^5 cfu/ml.

What about the “OD, average of 3 measurements” value (totarol 0.0002%, 16 h) of the same compound?
The value was 0.364.

What about the “viable count” value (totarol 0.0002%, 24 h) of the same compound?
Its value is 2.2 × 10^5 cfu/ml.

What about the “OD, average of 3 measurements” value (totarol 0.0002%, 24 h) of the same compound?
Its value is 0.398.

What about the “viable count” value (totarol 0.0004%, 0 h) of the same compound?
Its value is 2.2 × 10^5 cfu/ml.

What about the “OD, average of 3 measurements” value (totarol 0.0004%, 0 h) of the same compound?
Its value is 0.326.

And the “viable count” value (totarol 0.0004%, 8 h)?
Its value is 2 × 10^5 cfu/ml.

What about the “OD, average of 3 measurements” value (totarol 0.0004%, 8 h) of the same compound?
Its value is 0.334.

What about the “viable count” value (totarol 0.0004%, 16 h) of the same compound?
The value was 4.9 × 10^5 cfu/ml.

What about the “OD, average of 3 measurements” value (totarol 0.0004%, 16 h) of the same compound?
The value was 0.362.

What about the “viable count” value (totarol 0.0004%, 24 h) of the same compound?
The value was 3.9 × 10^5 cfu/ml.

And the “OD, average of 3 measurements” value (totarol 0.0004%, 24 h)?
The value was 0.390.

What about the “viable count” value (totarol 0.0007%, 0 h) of the same compound?
Its value is 9 × 10^4 cfu/ml.

And the “OD, average of 3 measurements” value (totarol 0.0007%, 0 h)?
Its value is 0.315.

What about the “viable count” value (totarol 0.0007%, 8 h) of the same compound?
The value was 6 × 10^4 cfu/ml.

And the “OD, average of 3 measurements” value (totarol 0.0007%, 8 h)?
Its value is 0.307.

And the “viable count” value (totarol 0.0007%, 16 h)?
Its value is 2.1 × 10^5 cfu/ml.

What about the “OD, average of 3 measurements” value (totarol 0.0007%, 16 h) of the same compound?
Its value is 0.326.

What about the “viable count” value (totarol 0.0007%, 24 h) of the same compound?
The value was 3.8 × 10^5 cfu/ml.

What about the “OD, average of 3 measurements” value (totarol 0.0007%, 24 h) of the same compound?
The value was 0.346.

And the “viable count” value (totarol 0.0013%, 0 h)?
Its value is 1 × 10^5 cfu/ml.

And the “OD, average of 3 measurements” value (totarol 0.0013%, 0 h)?
Its value is 0.321.

What about the “viable count” value (totarol 0.0013%, 8 h) of the same compound?
The value was 2.7 × 10^4 cfu/ml.

And the “OD, average of 3 measurements” value (totarol 0.0013%, 8 h)?
The value was 0.314.

And the “viable count” value (totarol 0.0013%, 16 h)?
The value was 6.2 × 10^5 cfu/ml.

And the “OD, average of 3 measurements” value (totarol 0.0013%, 16 h)?
The value was 0.318.

And the “viable count” value (totarol 0.0013%, 24 h)?
The value was 1.2 × 10^5 cfu/ml.

And the “OD, average of 3 measurements” value (totarol 0.0013%, 24 h)?
The value was 0.322.

And the “viable count” value (totarol 0.0025%, 0 h)?
The value was 1.3 × 10^5 cfu/ml.

What about the “OD, average of 3 measurements” value (totarol 0.0025%, 0 h) of the same compound?
The value was 0.312.

And the “viable count” value (totarol 0.0025%, 8 h)?
The value was 5 × 10^4 cfu/ml.

What about the “OD, average of 3 measurements” value (totarol 0.0025%, 8 h) of the same compound?
The value was 0.311.

What about the “viable count” value (totarol 0.0025%, 16 h) of the same compound?
The value was 5.2 × 10^4 cfu/ml.

And the “OD, average of 3 measurements” value (totarol 0.0025%, 16 h)?
Its value is 0.314.

And the “viable count” value (totarol 0.0025%, 24 h)?
Its value is 2.3 × 10^4 cfu/ml.

And the “OD, average of 3 measurements” value (totarol 0.0025%, 24 h)?
Its value is 0.317.

And the “viable count” value (totarol 0.005%, 0 h)?
Its value is 3.1 × 10^5 cfu/ml.

What about the “OD, average of 3 measurements” value (totarol 0.005%, 0 h) of the same compound?
The value was 0.318.

And the “viable count” value (totarol 0.005%, 8 h)?
The value was 0 cfu/ml.

And the “OD, average of 3 measurements” value (totarol 0.005%, 8 h)?
Its value is 0.318.

And the “viable count” value (totarol 0.005%, 16 h)?
Its value is 0 cfu/ml.

And the “OD, average of 3 measurements” value (totarol 0.005%, 16 h)?
Its value is 0.323.

What about the “viable count” value (totarol 0.005%, 24 h) of the same compound?
Its value is 0 cfu/ml.

And the “OD, average of 3 measurements” value (totarol 0.005%, 24 h)?
The value was 0.327.

And the “viable count” value (totarol 0.01%, 0 h)?
The value was 1.6 × 10^5 cfu/ml.

What about the “OD, average of 3 measurements” value (totarol 0.01%, 0 h) of the same compound?
The value was 0.319.

And the “viable count” value (totarol 0.01%, 8 h)?
Its value is 0 cfu/ml.

What about the “OD, average of 3 measurements” value (totarol 0.01%, 8 h) of the same compound?
Its value is 0.323.

And the “viable count” value (totarol 0.01%, 16 h)?
Its value is 0 cfu/ml.

What about the “OD, average of 3 measurements” value (totarol 0.01%, 16 h) of the same compound?
Its value is 0.325.

And the “viable count” value (totarol 0.01%, 24 h)?
Its value is 0 cfu/ml.

What about the “OD, average of 3 measurements” value (totarol 0.01%, 24 h) of the same compound?
The value was 0.328.

What about the “viable count” value (totarol 0.02%, 0 h) of the same compound?
The value was 2.1 × 10^5 cfu/ml.

What about the “OD, average of 3 measurements” value (totarol 0.02%, 0 h) of the same compound?
The value was 0.344.

What about the “viable count” value (totarol 0.02%, 8 h) of the same compound?
Its value is 0 cfu/ml.

And the “OD, average of 3 measurements” value (totarol 0.02%, 8 h)?
The value was 0.332.

And the “viable count” value (totarol 0.02%, 16 h)?
The value was 0 cfu/ml.

What about the “OD, average of 3 measurements” value (totarol 0.02%, 16 h) of the same compound?
The value was 0.333.

And the “viable count” value (totarol 0.02%, 24 h)?
Its value is 0 cfu/ml.

What about the “OD, average of 3 measurements” value (totarol 0.02%, 24 h) of the same compound?
The value was 0.334.

What about the “viable count” value (totarol 0.04%, 0 h) of the same compound?
The value was 3.7 × 10^5 cfu/ml.

And the “OD, average of 3 measurements” value (totarol 0.04%, 0 h)?
The value was 0.460.

And the “viable count” value (totarol 0.04%, 8 h)?
Its value is 0 cfu/ml.

What about the “OD, average of 3 measurements” value (totarol 0.04%, 8 h) of the same compound?
Its value is 0.416.

And the “viable count” value (totarol 0.04%, 16 h)?
Its value is 0 cfu/ml.

What about the “OD, average of 3 measurements” value (totarol 0.04%, 16 h) of the same compound?
Its value is 0.411.

What about the “viable count” value (totarol 0.04%, 24 h) of the same compound?
The value was 0 cfu/ml.

And the “OD, average of 3 measurements” value (totarol 0.04%, 24 h)?
The value was 0.379.

What about the “viable count” value (totarol 0.08%, 0 h) of the same compound?
The value was 6.1 × 10^5 cfu/ml.

What about the “OD, average of 3 measurements” value (totarol 0.08%, 0 h) of the same compound?
The value was 0.740.

What about the “viable count” value (totarol 0.08%, 8 h) of the same compound?
The value was 0 cfu/ml.

What about the “OD, average of 3 measurements” value (totarol 0.08%, 8 h) of the same compound?
Its value is 0.523.

And the “viable count” value (totarol 0.08%, 16 h)?
Its value is 0 cfu/ml.

And the “OD, average of 3 measurements” value (totarol 0.08%, 16 h)?
Its value is 0.455.

And the “viable count” value (totarol 0.08%, 24 h)?
Its value is 0 cfu/ml.

What about the “OD, average of 3 measurements” value (totarol 0.08%, 24 h) of the same compound?
Its value is 0.441.

And the “viable count” value (totarol 0.16%, 0 h)?
Its value is 1.4 × 10^5 cfu/ml.

And the “OD, average of 3 measurements” value (totarol 0.16%, 0 h)?
Its value is 0.822.

What about the “viable count” value (totarol 0.16%, 8 h) of the same compound?
The value was 0 cfu/ml.

What about the “OD, average of 3 measurements” value (totarol 0.16%, 8 h) of the same compound?
The value was 0.564.

And the “viable count” value (totarol 0.16%, 16 h)?
The value was 0 cfu/ml.

And the “OD, average of 3 measurements” value (totarol 0.16%, 16 h)?
Its value is 0.451.

And the “viable count” value (totarol 0.16%, 24 h)?
Its value is 0 cfu/ml.

And the “OD, average of 3 measurements” value (totarol 0.16%, 24 h)?
Its value is 0.438.
